Measured values: ChEMBL document CHEMBL3425483, “Synthesis, characterization, hypoglycemic and aldose reductase inhibition activity of arylsulfonylspiro[fluorene-9,5'-imidazolidine]-2',4'-diones” (Eur J Med Chem, 2015)
Calls of active or inactive are those of the source. The calls are words filed in the database; no cut-off is given here.

Columns and labels:
Mus musculus [1] = assay: In-vivo hypoglycemic activity in alloxan-pretreated diabetic BALB/c mouse assessed as blood glucose level at 10 mg/kg after 2 hrs by glucometer analysis (reference value: 385.2 +/- 8.94 mg/dl); format: functional
Mus musculus [2] = assay: In-vivo hypoglycemic activity in alloxan-pretreated diabetic BALB/c mouse assessed as blood glucose level at 10 mg/kg after 4 hrs by glucometer analysis (reference value: 385.2 +/- 8.94 mg/dl); format: functional
Mus musculus [3] = assay: In-vivo hypoglycemic activity in alloxan-pretreated diabetic BALB/c mouse assessed as blood glucose level at 10 mg/kg after 6 hrs by glucometer analysis (reference value: 385.2 +/- 8.94 mg/dl); format: functional
Mus musculus [4] = assay: In-vivo hypoglycemic activity in alloxan-pretreated diabetic BALB/c mouse assessed as blood glucose level at 10 mg/kg after 8 hrs by glucometer analysis (reference value: 385.2 +/- 8.94 mg/dl); format: functional
Mus musculus [5] = assay: In-vivo hypoglycemic activity in alloxan-pretreated diabetic BALB/c mouse assessed as blood glucose level at 10 mg/kg after 8 hrs by glucometer analysis; format: functional
Mus musculus [6] = assay: In-vivo hypoglycemic activity in alloxan-pretreated diabetic BALB/c mouse assessed as blood glucose level after 2 hrs by glucometer analysis (reference value: 239.0 to 444.4 mg/dl); format: functional
Mus musculus [7] = assay: In-vivo hypoglycemic activity in alloxan-pretreated diabetic BALB/c mouse assessed as blood glucose level after 4 hrs by glucometer analysis (reference value: 239.0 to 444.4 mg/dl); format: functional
Mus musculus [8] = assay: In-vivo hypoglycemic activity in alloxan-pretreated diabetic BALB/c mouse assessed as blood glucose level after 6 hrs by glucometer analysis (reference value: 239.0 to 444.4 mg/dl); format: functional
Mus musculus [9] = assay: In-vivo hypoglycemic activity in alloxan-pretreated diabetic BALB/c mouse assessed as blood glucose level after 8 hrs by glucometer analysis (reference value: 239.0 to 444.4 mg/dl); format: functional
[10] = biological target: Aldo-keto reductase family 1 member A1 (Bos taurus, UniProt Q3ZCJ2); assay: Inhibition of ALR1 in calf kidney using sodium D-glucoronate as substrate treated with compound for 10 mins prior to substrate addition by UV spectrophotometer analysis
[11] = biological target: Aldo-keto reductase family 1 member B1 (Bos taurus, UniProt P16116); assay: Inhibition of ALR2 in calf lenses using DL-glyceraldehyde as substrate treated with compound for 10 mins prior to substrate addition by UV spectrophotometer analysis; design: species or system Lens of camera-type eye
Bos taurus = organism: Bos taurus; assay: Selectivity index, ratio of IC50 for ALR1 in calf kidney to IC50 for ALR2 in calf lenses; format: tissue-based; details: Lens of camera-type eye
[12] = Retardation factor of the compound using petroleum ether/ethylacetate (6:4) as solvent system by TLC; format: physicochemical
Mus musculus [13] = assay: In-vivo hypoglycemic activity in alloxan-pretreated diabetic BALB/c mouse assessed as decrease in blood glucose level after 8 hrs by glucometer analysis; format: functional
[14] = biological target: Aldo-keto reductase family 1 member B1 (Bos taurus) (UniProt P16116); assay: Inhibition of ALR2 in calf lenses using DL-glyceraldehyde as substrate at 0.6 mM treated with compound for 10 mins prior to substrate addition by UV spectrophotometer analysis; details: Lens of camera-type eye
[15] = test system: aldehyde reductase (ALR1), Bos taurus; assay: Inhibition of ALR1 in calf kidney using sodium D-glucoronate as substrate at 0.6 mM treated with compound for 10 mins prior to substrate addition by UV spectrophotometer analysis
[16] = biological target: Aldo-keto reductase family 1 member B1 (Bos taurus) (UniProt P16116); assay: Uncompetitive inhibition of ALR2 in calf lenses using DL-glyceraldehyde as substrate at 20 uM by Lineweaver-Burk plot analysis; details: Lens of camera-type eye

Aldo-keto reductase family 1 member A1, sequence (Q3ZCJ2 2-325 limits assumed): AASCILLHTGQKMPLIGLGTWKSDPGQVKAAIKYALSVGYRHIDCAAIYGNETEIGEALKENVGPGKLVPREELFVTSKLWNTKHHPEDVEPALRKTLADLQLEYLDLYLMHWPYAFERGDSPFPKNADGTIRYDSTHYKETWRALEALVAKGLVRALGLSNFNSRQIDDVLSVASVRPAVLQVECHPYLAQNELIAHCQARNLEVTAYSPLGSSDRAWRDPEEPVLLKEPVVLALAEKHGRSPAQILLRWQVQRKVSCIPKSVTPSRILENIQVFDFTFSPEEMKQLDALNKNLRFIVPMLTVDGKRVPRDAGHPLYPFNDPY

IC50 [10] [µM]	IC50 [11] [µM]	Rf [12]	inhibition [14] [%]	inhibition [15] [%]	inhibition [16]	Compound	Activity (Mus musculus [1]) [mg/dL]	Activity (Mus musculus [2]) [mg/dL]	Activity (Mus musculus [3]) [mg/dL]	Activity (Mus musculus [4]) [mg/dL]	inhibition in vivo at 10 mg/kg (Mus musculus [5]) [%]	Activity (Mus musculus [6]) [mg/dL]	Activity (Mus musculus [7]) [mg/dL]	Activity (Mus musculus [8]) [mg/dL]	Activity (Mus musculus [9]) [mg/dL]	Ratio IC50 (Bos taurus)	inhibition (INH) (Mus musculus [13]) [%]
13.9	5.8	0.43				COc1ccc(S(=O)(=O)N2C(=O)NC(=O)C23c2ccccc2-c2ccccc23)cc1						275.6	205.6	143.6	129	2.39	66.38
12.3	7.88	0.31				O=C1NC(=O)C2(c3ccccc3-c3ccccc32)N1S(=O)(=O)c1ccc([N+](=O)[O-])cc1						226.6	189.4	176.8	138.2		62.86
12.1	1.72	0.2				O=C1NC(=O)C2(c3ccccc3-c3ccccc32)N1S(=O)(=O)c1ccc(Cl)cc1						259.8	289	323.4	355	9.68	
	5.37	0.31		52		O=C1NC2(C(=O)N1S(=O)(=O)c1ccc(Br)cc1)c1ccccc1-c1ccccc12						266.5	297.2	339.5	63.5	9.68	73.72
11.5	3.86	0.33				O=C1NC(=O)C2(c3ccccc3-c3ccccc32)N1S(=O)(=O)c1ccc(Br)cc1						217	168	115.8	72.8	2.97	70.55
8.8	2.29	0.25				Cc1ccc(S(=O)(=O)N2C(=O)NC(=O)C23c2ccccc2-c2ccccc23)cc1						286.2	239.4	152.2	116.2	3.84	61.67

The remaining lines, values behind:

Compound	IC50 [10] [µM]	IC50 [11] [µM]	Rf [12]	inhibition [14] [%]	inhibition [15] [%]	inhibition [16]	Activity (Mus musculus [1]) [mg/dL]	Activity (Mus musculus [2]) [mg/dL]	Activity (Mus musculus [3]) [mg/dL]	Activity (Mus musculus [4]) [mg/dL]	inhibition in vivo at 10 mg/kg (Mus musculus [5]) [%]	Activity (Mus musculus [6]) [mg/dL]	Activity (Mus musculus [7]) [mg/dL]	Activity (Mus musculus [8]) [mg/dL]	Activity (Mus musculus [9]) [mg/dL]	Ratio IC50 (Bos taurus)	inhibition (INH) (Mus musculus [13]) [%]
COc1ccc(Cl)cc1C(=O)NCCc1ccc(S(=O)(=O)NC(=O)NC2CCCCC2)cc1 [GLYBURIDE]							289.1	229.3	170.7	150.5	60.9						
COc1ccc(S(=O)(=O)N2C(=O)NC3(C2=O)c2ccccc2-c2ccccc23)cc1	26.1	1.02	0.42									380.2	376	402.8	418.8	25.6	
O=C1NC(=O)C2(c3ccccc3-c3ccccc32)N1S(=O)(=O)c1ccc2ccccc2c1	12.5	27.3	0.41									271.2	197.3	138.5	135	0.45	64.13
O=C1NC2(C(=O)N1S(=O)(=O)c1ccc3ccccc3c1)c1ccccc1-c1ccccc12			0.44	52	47.9							277	206	123	108.6		66.44
O=C1c2ccccc2C(=O)c2cc(S(=O)(=O)N3C(=O)NC4(C3=O)c3ccccc3-c3ccccc34)ccc21		11.3	0.47		44.9							305.8	336.4	400.4	442.6	2.41	
Cc1ccc(S(=O)(=O)N2C(=O)NC3(C2=O)c2ccccc2-c2ccccc23)cc1	5.15	2.84	0.27									229.3	180	146.6	123.6	1.81	48.28
O=C1NC2(C(=O)N1S(=O)(=O)c1ccc([N+](=O)[O-])cc1)c1ccccc1-c1ccccc12	3.51	1.8	0.35									226.6	190.4	175.2	121.8	1.95	55.25
O=C1c2ccccc2C(=O)c2cc(S(=O)(=O)N3C(=O)NC(=O)C34c3ccccc3-c3ccccc34)ccc21	20.3	10.3	0.44									467	500	522.2	544.6	1.97	
O=C1NC2(C(=O)N1S(=O)(=O)c1ccc(Cl)cc1)c1ccccc1-c1ccccc12		0.89	0.31		47.9	Active						232	160.4	78.8	68	53.8	72.24
